Target: T1, human capsaicin receptor (VR1) (Homo sapiens, UniProt Q8NER1)
T1 construct: transfected with the pBK-CMV expression construct encoding the full length human capsaicin receptor; expressed in transfected cells
Assay: Capsaicin receptor binding assay ([3H]RTX competition)
Details: read-out: Ki
Summary of the method: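 Membranes from HEK293 cells stably expressing full-length human VR1; competition against 60 pM [3H]RTX, 60 min at 37 °C in HEPES/sucrose buffer pH 7.4 with 0.25 mg/ml BSA. Non-specific binding defined with 1 μM unlabelled RTX; alpha1-acid glycoprotein added after termination on ice.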

T1 sequence (Q8NER1 whole entry): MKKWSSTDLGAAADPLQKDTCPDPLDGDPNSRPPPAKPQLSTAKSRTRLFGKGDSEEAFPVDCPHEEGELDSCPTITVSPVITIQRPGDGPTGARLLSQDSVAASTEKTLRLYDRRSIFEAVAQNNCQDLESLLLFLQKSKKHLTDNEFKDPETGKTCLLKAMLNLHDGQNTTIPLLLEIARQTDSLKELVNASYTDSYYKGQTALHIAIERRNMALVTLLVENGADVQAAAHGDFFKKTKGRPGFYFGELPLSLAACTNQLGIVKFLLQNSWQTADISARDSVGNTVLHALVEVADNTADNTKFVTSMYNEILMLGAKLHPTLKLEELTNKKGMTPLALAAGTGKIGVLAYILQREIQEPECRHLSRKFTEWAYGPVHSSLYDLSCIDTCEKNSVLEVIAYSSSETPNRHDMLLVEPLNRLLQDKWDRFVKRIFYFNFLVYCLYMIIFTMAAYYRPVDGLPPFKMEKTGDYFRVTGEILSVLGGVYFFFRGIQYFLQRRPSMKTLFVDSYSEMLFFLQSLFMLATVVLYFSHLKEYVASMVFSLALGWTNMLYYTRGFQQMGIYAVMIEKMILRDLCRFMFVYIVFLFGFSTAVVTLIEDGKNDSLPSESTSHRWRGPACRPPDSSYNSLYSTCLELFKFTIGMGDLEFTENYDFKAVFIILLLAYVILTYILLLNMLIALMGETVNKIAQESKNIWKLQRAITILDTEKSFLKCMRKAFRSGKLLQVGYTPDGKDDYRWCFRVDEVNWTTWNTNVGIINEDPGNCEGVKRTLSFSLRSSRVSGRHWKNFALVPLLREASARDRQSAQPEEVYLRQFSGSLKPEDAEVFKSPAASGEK

SMILES | Ki
COc1ccccc1-c1ccc(C(=O)Nc2ccc(C(C)C)cc2)cn1 [Compound 378, N-(4-Isopropyl-phenyl)-6-(2-methoxy-phenyl)-nicotinamide] | < 1000 nM
Cc1cccc(-c2ccc(C(=O)Nc3ccc(C(C)C)cc3)cn2)c1 [Compound 383, N-(4-Isopropyl-phenyl)-6-m-tolyl-nicotinamide] | < 1000 nM
Cc1ccccc1-c1ccc(C(=O)Nc2ccc(C(C)C)cc2)cn1 [Compound 384, N-(4-Isopropyl-phenyl)-6-o-tolyl-nicotinamide] | < 1000 nM
CC(C)c1ccc(NC(=O)c2ccc(-c3ccccc3)nc2)cc1 [Compound 385, N-(4-Isopropyl-phenyl)-6-phenyl-nicotinamide] | < 1000 nM
CCCc1ccc(NC(=O)c2ccc(-c3ccccc3C)nc2)cc1 [Compound 389, N-(4-Propyl-phenyl)-6-o-tolyl-nicotinamide] | < 1000 nM
CCC(C)c1ccc(NC(=O)c2ccc(-c3ncccc3F)cc2)cc1 (centres unmarked) [Compound 390, N-(4-sec-Butyl-phenyl)-4-(3-fluoro-pyridin-2-yl)-benzamide] | < 1000 nM
COc1ccc(F)cc1-c1ccc(C(=O)Nc2ccc(C(C)(C)C)cc2Cl)cn1 [Compound 391, N-(4-tert-Butyl-2-chloro-phenyl)-6-(5-fluoro-2-methoxy-phenyl)-nicotinamide] | < 1000 nM
CC(C)(C)[C@H]1CC[C@H](NC(=O)c2ccc(-c3ncccc3Cl)cc2)CC1 [Compound 392, N-(4-tert-Butyl-cyclohexyl)-4-(3-chloro-pyridin-2-yl)-benzamide (trans)] | < 1000 nM
CC(C)(C)[C@H]1CC[C@@H](NC(=O)c2ccc(-c3ncccc3Cl)cc2)CC1 [Compound 393, N-(4-tert-Butyl-cyclohexyl)-4-(3-chloro-pyridin-2-yl)-benzamide (cis)] | < 1000 nM
CC(C)(C)c1ccc(NC(=O)c2ccc(-c3ncccc3C(F)(F)F)cc2O)cc1 [Compound 394, N-(4-tert-Butyl-phenyl)-2-hydroxy-4-(3-trifluoromethyl-pyridin-2-yl)-benzamide] | < 1000 nM
CC(C)(C)c1ccc(NC(=O)c2ccc(-c3ncccc3C(F)(F)F)cc2[N+](=O)[O-])cc1 [Compound 395, N-(4-tert-Butyl-phenyl)-2-nitro-4-(3-trifluoromethyl-pyridin-2-yl)-benzamide] | < 1000 nM
CC(C)(C)c1ccc(NC(=O)c2ccc(-c3ccc4[nH]ccc4c3)cc2)cc1 [Compound 396, N-(4-tert-Butyl-phenyl)-4-(1H-indol-5-yl)-benzamide] | < 1000 nM
CC(C)(C)c1ccc(NC(=O)c2ccc(C3CCCCN3S(C)(=O)=O)cc2)cc1 (centres unmarked) [Compound 397, N-(4-tert-Butyl-phenyl)-4-(1-methanesulfonyl-piperidin-2-yl)-benzamide] | < 1000 nM
CN1CCCCC1c1ccc(C(=O)Nc2ccc(C(C)(C)C)cc2)cc1 (centres unmarked) [Compound 398, N-(4-tert-Butyl-phenyl)-4-(1-methyl-piperidin-2-yl)-benzamide] | < 1000 nM
CCCN1CCCCC1c1ccc(C(=O)Nc2ccc(C(C)(C)C)cc2)cc1 (centres unmarked) [Compound 399, N-(4-tert-Butyl-phenyl)-4-(1-propyl-piperidin-2-yl)-benzamide] | < 1000 nM
CC(C)(C)c1ccc(NC(=O)c2ccc(-c3ncc(Cl)cc3Cl)cc2)cc1 [Compound 400, N-(4-tert-Butyl-phenyl)-4-(3,5-dichloro-pyridin-2-yl)-benzamide] | < 1000 nM
CC(C)(C)c1ccc(NC(=O)c2ccc(-c3ncccc3-c3nnco3)cc2)cc1 [Compound 401, N-(4-tert-Butyl-phenyl)-4-(3-[1,3,4]oxadiazol-2-yl-pyridin-2-yl)-benzamide] | < 1000 nM
CC(C)(C)c1ccc(NC(=O)c2ccc(-c3ncc(C(F)(F)F)cc3Cl)cc2)cc1 [Compound 402, N-(4-tert-Butyl-phenyl)-4-(3-chloro-5-trifluoromethyl-pyridin-2-yl)-benzamide] | < 1000 nM
CC(C)(C)c1ccc(NC(=O)c2ccc(-c3nccnc3Cl)cc2)cc1 [Compound 403, N-(4-tert-Butyl-phenyl)-4-(3-chloro-pyrazin-2-yl)-benzamide] | < 1000 nM
CC(C)(C)c1ccc(NC(=O)c2ccc(-c3ncccc3Cl)cc2)cc1 [Compound 404, N-(4-tert-Butyl-phenyl)-4-(3-chloro-pyridin-2-yl)-benzamide] | < 1000 nM
CC(C)(C)c1ccc(NC(=O)c2ccc(-c3ncccc3C#N)cc2)cc1 [Compound 405, N-(4-tert-Butyl-phenyl)-4-(3-cyano-pyridin-2-yl)-benzamide] | < 1000 nM
CC(C)(C)c1ccc(NC(=O)c2ccc(-c3ncccc3NC3CCCC3)cc2)cc1 [Compound 406, N-(4-tert-Butyl-phenyl)-4-(3-cyclopentylamino-pyridin-2-yl)-benzamide] | < 1000 nM

SMILES | Ki
CN(C)Cc1cccnc1-c1ccc(C(=O)Nc2ccc(C(C)(C)C)cc2)cc1 [Compound 407, N-(4-tert-Butyl-phenyl)-4-(3-dimethylaminomethyl-pyridin-2-yl)-benzamide] | < 1000 nM
CCS(=O)(=O)Nc1cccnc1-c1ccc(C(=O)Nc2ccc(C(C)(C)C)cc2)cc1 [Compound 408, N-(4-tert-Butyl-phenyl)-4-(3-ethanesulfonylamino-pyridin-2-yl)-benzamide] | < 1000 nM
CC(C)(C)c1ccc(NC(=O)c2ccc(-c3ncccc3F)cc2)cc1 [Compound 409, N-(4-tert-Butyl-phenyl)-4-(3-fluoro-pyridin-2-yl)-benzamide] | < 1000 nM
CC(C)(C)c1ccc(NC(=O)c2ccc(-c3ncccc3C=O)cc2)cc1 [Compound 410, N-(4-tert-Butyl-phenyl)-4-(3-formyl-pyridin-2-yl)-benzamide] | < 1000 nM
CC(C)(C)c1ccc(NC(=O)c2ccc(-c3ncccc3NO)cc2)cc1 [Compound 411, N-(4-tert-Butyl-phenyl)-4-(3-hydroxyamino-pyridin-2-yl)-benzamide] | < 1000 nM
CC(C)(C)c1ccc(NC(=O)c2ccc(-c3ncccc3CO)cc2)cc1 [Compound 412, N-(4-tert-Butyl-phenyl)-4-(3-hydroxymethyl-pyridin-2-yl)-benzamide] | < 1000 nM
CC(C)(C)c1ccc(NC(=O)c2ccc(-c3ncccc3NS(C)(=O)=O)cc2)cc1 [Compound 413, N-(4-tert-Butyl-phenyl)-4-(3-methanesulfonylamino-pyridin-2-yl)-benzamide] | < 1000 nM
CC(C)(C)c1ccc(NC(=O)c2ccc(-c3ncccc3[N+](=O)[O-])cc2)cc1 [Compound 415, N-(4-tert-Butyl-phenyl)-4-(3-nitro-pyridin-2-yl)-benzamide] | < 1000 nM
CC(C)(C)c1ccc(NC(=O)c2ccc(-c3ccncc3[N+](=O)[O-])cc2)cc1 [Compound 416, N-(4-tert-Butyl-phenyl)-4-(3-nitro-pyridin-4-yl)-benzamide] | < 1000 nM
CC(C)(C)c1ccc(NC(=O)c2ccc(-c3ncccc3NS(=O)(=O)Cc3ccccc3)cc2)cc1 [Compound 417, N-(4-tert-Butyl-phenyl)-4-(3-phenylinethanesulfonylamino-pyridin-2-yl)-benzamide] | < 1000 nM
CCCOc1cccnc1-c1ccc(C(=O)Nc2ccc(C(C)(C)C)cc2)cc1 [Compound 418, N-(4-tert-Butyl-phenyl)-4-(3-propoxy-pyridin-2-yl)-benzamide] | < 1000 nM
CCCNc1cccnc1-c1ccc(C(=O)Nc2ccc(C(C)(C)C)cc2)cc1 [Compound 419, N-(4-tert-Butyl-phenyl)-4-(3-propylamino-pyridin-2-yl)-benzamide] | < 1000 nM
CC(C)(C)c1ccc(NC(=O)c2ccc(-c3ncccc3CN3CCCC3)cc2)cc1 [Compound 420, N-(4-tert-Butyl-phenyl)-4-(3-pyrrolidin-1-ylmethyl-pyridin-2-yl)-benzamide] | < 1000 nM
CC(C)(C)c1ccc(NC(=O)c2ccc(-c3ncccc3C(F)(F)F)cc2)cc1 [Compound 421, N-(4-tert-Butyl-phenyl)-4-(3-trifluoromethyl-pyridin-2-yl)-benzamide] | < 1000 nM
CC(C)(C)c1ccc(NC(=O)c2ccc(-c3cc(C(F)(F)F)ccn3)cc2)cc1 [Compound 422, N-(4-tert-Butyl-phenyl)-4-(4-trifluoromethyl-pyridin-2-yl)-benzamide] | < 1000 nM
CC(C)(C)c1ccc(NC(=O)c2ccc(-c3ncccc3NS(=O)(=O)c3ccc(F)cc3)cc2)cc1 [Compound 423, N-(4-tert-Butyl-phenyl)-4-[3-(4-fluoro-benzenesulfonylamino)-pyridin-2-yl]-benzamide] | < 1000 nM
Cc1nnc(-c2cccnc2-c2ccc(C(=O)Nc3ccc(C(C)(C)C)cc3)cc2)o1 [Compound 424, N-(4-tert-Butyl-phenyl)-4-[3-(5-methyl-[1,3,4]oxadiazol-2-yl)-pyridin-2-yl]-benzamide] | < 1000 nM
CN(c1cccnc1-c1ccc(C(=O)Nc2ccc(C(C)(C)C)cc2)cc1)S(C)(=O)=O [Compound 425, N-(4-tert-Butyl-phenyl)-4-[3-(methanesulfonyl-methyl-amino)-pyridin-2-yl]-benzamide] | < 1000 nM
CC(C)(C)c1ccc(NC(=O)c2ccc(-c3ncccc3N(S(C)(=O)=O)S(C)(=O)=O)cc2)cc1 [Compound 426, N-(4-tert-Butyl-phenyl)-4-[3-(N,N-dimethanesulfonyl)amino-pyridin-2-yl]-benzamide] | < 1000 nM
CC(C)(C)c1ccc(NC(=O)c2ccc(-c3ccncc3N(S(C)(=O)=O)S(C)(=O)=O)cc2)cc1 [Compound 427, N-(4-tert-Butyl-phenyl)-4-[3-(N,N-dimethanesulfonyl)amino-pyridin-4-yl]-benzamide] | < 1000 nM
Cc1ccc(S(=O)(=O)Nc2cccnc2-c2ccc(C(=O)Nc3ccc(C(C)(C)C)cc3)cc2)cc1 [Compound 428, N-(4-tert-Butyl-phenyl)-4-[3-(toluene-4-sulfonylamino)-pyridin-2-yl]-benzamide] | < 1000 nM
CC(C)(C)c1ccc(NC(=O)c2ccc(C3CCCCN3)cc2)cc1 (centres unmarked) [Compound 429, N-(4-tert-Butyl-phenyl)-4-piperidin-2-yl-benzamide] | < 1000 nM
